# Data as given in ChEMBL document CHEMBL5634133, “Indirubin derivatives as bifunctional molecules inducing DNA damage and targeting PARP for the treatment of cancer” (Eur J Med Chem, 2023).
# Activity calls are given as the source filed them. The rule behind the calls is not given here.
# Columns and labels:
# MV4-11 [1] = assay: Antiproliferative activity against human MV4-11 cells assessed as inhibition of cell viability incubated for 72 hrs by CCK8 assay; format: functional, cell-based; conditions: MV4-11, 72 h
# A549 [2] = assay: Antiproliferative activity against human A549 cells assessed as inhibition of cell viability incubated for 72 hrs by CCK8 assay; format: functional, cell-based; conditions: A549, 72 h
# MCF7 [3] = assay: Antiproliferative activity against human MCF7 cells assessed as inhibition of cell viability incubated for 72 hrs by CCK8 assay; format: functional, cell-based; conditions: MCF7, 72 h
# HCT-116 [4] = assay: Antiproliferative activity against human HCT-116 cells assessed as inhibition of cell viability incubated for 72 hrs by CCK8 assay; format: functional, cell-based; conditions: HCT-116, 72 h
# NCM460 [5] = assay: Antiproliferative activity against human NCM460 cells assessed as inhibition of cell viability incubated for 72 hrs by CCK8 assay; format: functional, cell-based; conditions: NCM460, 72 h
# [6] = target: T1, Poly [ADP-ribose] polymerase 1 (Homo sapiens, UniProt P09874); conditions: dose 10.0 nM, time 10.0 min
# T1 sequence (P09874 whole entry): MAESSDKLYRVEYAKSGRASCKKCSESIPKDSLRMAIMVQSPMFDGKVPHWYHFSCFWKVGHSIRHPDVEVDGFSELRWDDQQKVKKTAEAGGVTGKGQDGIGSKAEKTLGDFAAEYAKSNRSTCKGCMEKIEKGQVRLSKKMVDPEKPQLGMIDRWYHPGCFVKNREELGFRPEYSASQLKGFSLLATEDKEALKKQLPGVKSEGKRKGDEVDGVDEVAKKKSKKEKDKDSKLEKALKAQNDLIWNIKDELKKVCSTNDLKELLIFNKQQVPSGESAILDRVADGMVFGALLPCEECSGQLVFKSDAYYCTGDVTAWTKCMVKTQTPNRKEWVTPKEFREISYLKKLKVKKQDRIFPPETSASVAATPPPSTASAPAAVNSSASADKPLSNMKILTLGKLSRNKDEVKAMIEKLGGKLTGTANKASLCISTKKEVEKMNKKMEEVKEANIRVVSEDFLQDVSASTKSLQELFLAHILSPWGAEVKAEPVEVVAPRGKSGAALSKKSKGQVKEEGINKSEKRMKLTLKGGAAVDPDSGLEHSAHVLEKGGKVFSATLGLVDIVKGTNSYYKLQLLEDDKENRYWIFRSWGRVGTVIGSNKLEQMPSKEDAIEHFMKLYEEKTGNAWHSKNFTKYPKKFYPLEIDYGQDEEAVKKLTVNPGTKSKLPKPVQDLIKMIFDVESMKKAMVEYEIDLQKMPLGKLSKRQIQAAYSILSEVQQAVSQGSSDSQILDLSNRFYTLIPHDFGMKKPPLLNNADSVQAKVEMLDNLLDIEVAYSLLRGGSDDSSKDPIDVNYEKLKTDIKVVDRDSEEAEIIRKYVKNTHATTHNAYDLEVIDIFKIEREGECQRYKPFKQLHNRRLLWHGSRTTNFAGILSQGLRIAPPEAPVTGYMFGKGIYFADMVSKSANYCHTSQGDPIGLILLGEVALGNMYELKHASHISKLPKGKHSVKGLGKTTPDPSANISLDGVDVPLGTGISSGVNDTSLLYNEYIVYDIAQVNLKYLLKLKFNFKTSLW
# [7] = target: T1, Poly [ADP-ribose] polymerase 1; assay: Inhibition of PARP1 (unknown origin) incubated for 10 mins by chemiluminescence assay
# MCF7 [8] = assay: cells; conditions: Homo sapiens, MCF7, 72 h
# Description: Antiproliferative activity against human MCF7 cells assessed as inhibition of cell viability incubated for 72 hrs in presence of IDM by CCK8 assay
# MV4-11 [9] = assay: Antiproliferative activity against human MV4-11 cells assessed as inhibition of cell viability incubated for 72 hrs in presence of IDM by CCK8 assay; format: functional, cell-based; conditions: MV4-11, 72 h
# HCT-116 [10] = assay: cells; conditions: Homo sapiens, HCT-116, 72 h
# Description: Antiproliferative activity against human HCT-116 cells assessed as inhibition of cell viability incubated for 72 hrs in presence of IDM by CCK8 assay
# NCM460 [11] = assay: cells; conditions: Homo sapiens, NCM460, 72 h
# Description: Antiproliferative activity against human NCM460 cells assessed as inhibition of cell viability incubated for 72 hrs in presence of IDM by CCK8 assay
# A549 [12] = assay: cells; conditions: Homo sapiens, A549, 72 h
# Description: Antiproliferative activity against human A549 cells assessed as inhibition of cell viability incubated for 72 hrs in presence of IDM by CCK8 assay
# HCT-116 [13] = assay: Antitumor activity against human HCT-116 cells xenografted in BALB/c nude mouse assessed as tumor growth inhibition at 20 mg/kg, ip administered for 14 days relative to control; format: functional; conditions: time 14 day
# HCT-116 [14] = assay: Induction of DNA damage in human HCT-116 cells assessed as increase in gammaH2AX protein level at 1 uM incubated for 48 hrs in presence of IDM by Western blotting analysis; format: cell-based
SMILES,IC50 (MV4-11 [1]),IC50 (A549 [2]),IC50 (MCF7 [3]),IC50 (HCT-116 [4]),IC50 (NCM460 [5]),inhibition [6],IC50 [7],IC50 (MCF7 [8]),IC50 (MV4-11 [9]),IC50 (HCT-116 [10]),IC50 (NCM460 [11]),IC50 (A549 [12]),TGI (HCT-116 [13]),Activity (HCT-116 [14])
O=C1Nc2ccccc2/C1=C1/Nc2ccccc2/C1=N\OCCCCCNC(=O)c1cc(Cc2n[nH]c(=O)c3ccccc23)ccc1F,> 50 µM,> 50 µM,> 50 µM,25.5 µM,> 60 µM,,,,,,,,,
O=C1Nc2ccccc2/C1=C1/Nc2ccccc2/C1=N\OCCCCCCCC(=O)N1CCN(C(=O)c2ccc(Cc3n[nH]c(=O)c4ccccc34)cc2F)CC1,> 50 µM,> 50 µM,> 50 µM,43.9 µM,> 60 µM,,,,,,,,,
NC(=O)c1cccc2cn(-c3ccc([C@@H]4CCCN(C(=O)CCCCO/N=C5/C(=C6/C(=O)Nc7ccccc76)Nc6ccccc65)C4)cc3)nc12,36.2 µM,48.2 µM,41.9 µM,27.3 µM,> 60 µM,,,,,,,,,
NC(=O)c1cccc2cn(-c3ccc([C@@H]4CCCN(C(=O)CCCCCCO/N=C5/C(=C6/C(=O)Nc7ccccc76)Nc6ccccc65)C4)cc3)nc12,> 50 µM,> 50 µM,> 50 µM,> 50 µM,> 60 µM,,,,,,,,,
O=C1Nc2ccc(F)cc2/C1=C1/Nc2ccc(F)cc2/C1=N\OCCCC(=O)N1CCN(C(=O)c2cc(Cc3n[nH]c(=O)c4ccccc34)ccc2F)CC1,44.4 µM,42.3 µM,45.3 µM,0.75 µM,> 60 µM,49.9%,,,,,,,,
O=C1Nc2ccccc2/C1=C1/Nc2ccccc2/C1=N\OCCCCNC(=O)c1cc(Cc2n[nH]c(=O)c3ccccc23)ccc1F,11.7 µM,4.41 µM,1.82 µM,3.1 µM,8.04 µM,,,,,,,,,
NC(=O)c1cccc2cn(-c3ccc([C@@H]4CCCN(C(=O)CCCCCO/N=C5/C(=C6/C(=O)Nc7ccccc76)Nc6ccccc65)C4)cc3)nc12,47 µM,> 50 µM,> 50 µM,29.4 µM,> 60 µM,,,,,,,,,
O=C1Nc2ccccc2/C1=C1/Nc2ccccc2/C1=N\OCCCCCCC(=O)N1CCN(C(=O)c2ccc(Cc3n[nH]c(=O)c4ccccc34)cc2F)CC1,> 50 µM,> 50 µM,> 50 µM,39.2 µM,> 60 µM,,,,,,,,,
O=C1Nc2ccccc2/C1=C1/Nc2ccccc2/C1=N\OCCCCC(=O)N1CCN(C(=O)c2ccc(Cc3n[nH]c(=O)c4ccccc34)cc2F)CC1,38.7 µM,37.6 µM,44.3 µM,21.1 µM,> 60 µM,,,,,,,,,
O=C1Nc2ccc(F)cc2/C1=C1/Nc2ccccc2/C1=N\OCCCC(=O)N1CCN(C(=O)c2cc(Cc3n[nH]c(=O)c4ccccc34)ccc2F)CC1,23.8 µM,34.7 µM,38.7 µM,19.3 µM,> 60 µM,54.9%,0.00225 µM,,,,,,,
O=C1Nc2ccccc2/C1=C1/Nc2ccc(F)cc2/C1=N\OCCCC(=O)N1CCN(C(=O)c2cc(Cc3n[nH]c(=O)c4ccccc34)ccc2F)CC1,21.6 µM,25 µM,32.4 µM,17.8 µM,> 60 µM,55.8%,0.00446 µM,,,,,,,
O=C1Nc2ccccc2/C1=C1/Nc2ccccc2/C1=N\OCCCCCCCNC(=O)c1cc(Cc2n[nH]c(=O)c3ccccc23)ccc1F,> 50 µM,> 50 µM,> 50 µM,> 50 µM,> 60 µM,,,,,,,,,
O=C1Nc2ccccc2/C1=C1/Nc2ccccc2/C1=N\OCCCNC(=O)c1cc(Cc2n[nH]c(=O)c3ccccc23)ccc1F,14.9 µM,8.22 µM,6.89 µM,13.7 µM,9.37 µM,,,,,,,,,
O=C1Nc2ccccc2/C1=C1/Nc2ccccc2/C1=N\OCC1CCN(C(=O)c2cc(Cc3n[nH]c(=O)c4ccccc34)ccc2F)CC1,47.5 µM,> 50 µM,> 50 µM,45 µM,> 60 µM,,,,,,,,,
O=C1Nc2ccccc2/C1=C1/Nc2ccccc2/C1=N\OCc1ccc(C(=O)N2CCN(C(=O)c3cc(Cc4n[nH]c(=O)c5ccccc45)ccc3F)CC2)cc1,33.1 µM,42.7 µM,43.8 µM,27.4 µM,> 60 µM,,,,,,,,,
O=C1Nc2ccc(Br)cc2/C1=C1/Nc2ccccc2/C1=N\OCCCC(=O)N1CCN(C(=O)c2cc(Cc3n[nH]c(=O)c4ccccc34)ccc2F)CC1,11.4 µM,27.6 µM,29.2 µM,8.43 µM,> 60 µM,53.8%,0.00466 µM,,,,,,,
NC(=O)c1cccc2cn(-c3ccc([C@@H]4CCCN(C(=O)c5ccc(CO/N=C6/C(=C7/C(=O)Nc8ccccc87)Nc7ccccc76)cc5)C4)cc3)nc12,39.6 µM,49.1 µM,47.3 µM,31.3 µM,> 60 µM,,,,,,,,,
NC(=O)c1cccc2cn(-c3ccc([C@@H]4CCCNC4)cc3)nc12 [NIRAPARIB],3.82 µM,12.6 µM,11.8 µM,1.81 µM,53.7 µM,,,1.41 µM,1.69 µM,0.83 µM,21.1 µM,4.17 µM,,
O=C(c1cc(Cc2n[nH]c(=O)c3ccccc23)ccc1F)N1CCN(C(=O)C2CC2)CC1 [OLAPARIB],13.4 µM,29.5 µM,93.9 µM,11.1 µM,67.2 µM,50.6%,,2.33 µM,2.36 µM,1.37 µM,20.2 µM,6.06 µM,32.5%,Active
O=C1Nc2ccccc2/C1=C1/Nc2ccccc2/C1=N\OCCCCCC(=O)N1CCN(C(=O)c2ccc(Cc3n[nH]c(=O)c4ccccc34)cc2F)CC1,> 50 µM,> 50 µM,> 50 µM,32.4 µM,> 60 µM,,,,,,,,,
NC(=O)c1cccc2cn(-c3ccc([C@@H]4CCCN(C(=O)CCCCCCCO/N=C5/C(=C6/C(=O)Nc7ccccc76)Nc6ccccc65)C4)cc3)nc12,> 50 µM,> 50 µM,> 50 µM,> 50 µM,> 60 µM,,,,,,,,,
O=C1Nc2ccccc2/C1=C1/Nc2ccccc2/C1=N\OCCCCCCNC(=O)c1cc(Cc2n[nH]c(=O)c3ccccc23)ccc1F,> 50 µM,> 50 µM,> 50 µM,47.2 µM,> 60 µM,,,,,,,,,
O=C1Nc2ccc(Br)cc2/C1=C1/Nc2ccc(Br)cc2/C1=N\OCCCC(=O)N1CCN(C(=O)c2cc(Cc3n[nH]c(=O)c4ccccc34)ccc2F)CC1,48.4 µM,47.2 µM,48.7 µM,8.21 µM,> 60 µM,31.1%,,,,,,,,
O=C1Nc2ccc(Cl)cc2/C1=C1/Nc2ccccc2/C1=N\OCCCC(=O)N1CCN(C(=O)c2cc(Cc3n[nH]c(=O)c4ccccc34)ccc2F)CC1,> 50 µM,> 50 µM,> 50 µM,28.3 µM,> 60 µM,,,,,,,,,
